Data on one compound can be found in patent US11826373B2, “Methods for treatment of diseases” (Galera Labs, LLC, priority 2011, dated 2023).

Structures are written as SMILES. Like-named read-outs stand apart in the source and are kept apart here.

This series in a line: Human Phase 1 pharmacokinetics of GC4403. In kind it is in vivo. As to conditions: both sexes, plasma; for AUC(0-t): read-out: AUC0-24 h. How it is done: In a Phase 1 randomized, double-blind, placebo-controlled single rising dose safety, tolerability and pharmacokinetics study, 54 healthy male and female subjects were dosed from 2.2 to 25 mg of GC4403 administered intravenously over 30 minutes. Disposition of GC4403 is multi-exponential and follows linear pharmacokinetics with generally proportional increases in AUC and Cmax with increasing dose over the dose ranges studied. […] GC4403 is excreted unchanged in the urine and accounts for approximately 9 to 17% of the dose administered. No significant cardiovascular or vital sign effects, no significant physical examination abnormalities, and no significant abnormalities in routine clinical laboratory assessments were observed. Facial tingling, generalized tingling, paraesthesias and facial warmth were reported in a dose responsive manner, occurring at the 16.7 and 25 mg GC4403 doses.
As part of the conduct of the Phase 1a clinical studies for GC4403 and GC4419 described in the Examples herein, plasma samples were collected for measuring the concentration of parent compounds (GC4403 and GC4419) after intravenous infusion. Table 3 illustrates the pharmacokinetic parameter, area under the curve (AUC), representing the total exposure of the subject to the drugs over time.

As a reminder, the half-life is how long it takes for the measured level to halve. Consider `[Cl][Mn-5]1234([Cl])[n+]5c6cccc5C[NH+]1[C@@H]1CCCC[C@H]1[NH+]2CC[NH+]3[C@@H]1CCCC[C@H]1[NH+]4C6` (some centres unmarked) [GC4403], for which the AUC(0-t) is, setting by setting: (2.2 mg IV over 30 minutes) 184 ng·h/mL; (3.3 mg IV over 30 minutes) 310 ng·h/mL; (4.9 mg IV over 30 minutes) 453 ng·h/mL; (7.4 mg IV over 30 minutes) 595 ng·h/mL; (11.1 mg IV over 30 minutes) 1050 ng·h/mL; (16.7 mg IV over 30 minutes) 1510 ng·h/mL. Moreover, under “25 mg IV over 30 minutes”, the AUC(0-t) came out at 2560 ng·h/mL. Moreover, the half-life (IV over 30 minutes, read-out: terminal elimination half-life (converted)) is about 90 min.
